From patent US9783541B2, “5′-nucleotidase inhibitors and therapeutic uses thereof” (Centre National de la Recherche Scientifique-CNRS, priority 2013, dated 2017) come the findings set out here.

As a reminder, the IC50 is the concentration that inhibits the measured activity by half.

Like-named read-outs stand apart in the source and are kept apart here.

The target in data set [1] is purified recombinant cN-II enzyme (Homo sapiens, UniProt P49902). The data set can be described thus: cN-II inhibition test (inorganic phosphate from IMP, Malachite green). Type of data set: biochemical. More on the design: key to Inhibition strength (Strong/Medium/Weak): Strong; Medium; Weak. The method, then: The activity of cN-II is measured in vitro by following the appearance of the inorganic phosphate produced during the enzymatic reaction. The purified recombinant cN-II enzyme is used in the presence of its preferential substrate, inosine 5′-monophosphate (IMP). During the hydrolysis reaction, inosine and inorganic phosphate are produced from the IMP. This phosphate is then assayed by means of a colorimetric method using Malachite green (kit sold by the company Gentaur): the reading of absorbence at 630 nm makes it possible to quantify the inorganic phosphate.
The reagents used are: 50 mM imidazole buffer, pH=6.5, 500 mM NaCl and 10 mM MgCl2. The enzyme (cN-II) concentration is 0.1 μM and the IMP concentration is 100 μM.
A phosphate concentration range is performed in parallel in order to quantify the phosphate produced during the reaction.

A further data set relates to RL cancer line. The experiment in a line: Synergy MTT test with cytotoxic nucleoside analogs. Format: cell-based, Human. As to conditions: for Synergy MTT with cladribine / Synergy MTT with clofarabine / Synergy MTT with fludarabine: RL cells, 72 h, constant ratio, CI95; for Synergy MTT with cladribine: partner cladribine; for Synergy MTT with clofarabine: partner clofarabine; for Synergy MTT with fludarabine: partner fludarabine; for synergistic effect with at least one of the three anticancer agents: cladribine, clofarabine, fludarabine. A general note: Tetrazolium dyes change colour on reduction, which living cells bring about.

Data set [2] relates to RL human follicular lymphoma cell line. The data set can be described thus: cytotoxicity on RL cancer line (MTT, IC50). As to conditions: for IC50: read-out: RL cancer line IC50, 72 h incubation, MTT.
Method: After 72 h of incubation, the living cells are quantified using the MTT reagent.
The inhibitory concentration 50 (IC50) and the combination index (CI95) are calculated with the CompuSyn software 1.0 (ComboSyn, Inc., USA).
A further data set has as its system cells of AML patients. The experiment in a line: ex vivo cytotoxicity, Annexin V / propidium iodide flow cytometry, AML patient cells. As to conditions: 100 μM, 24 hours. Type of data set: cell-based, human. The method, then:
(§1) Peripheral blood was recovered from patients suffering from chronic […] leukemia (LLC) or from acute myeloid leukemia (AML) in heparinized tubes. […] The cells having experienced an effect of the incubations are labeled with Annexin V alone or with propidium iodide (see FIG. 6).

The subject of another data set is cells of CLL patients. The data set can be described thus: ex vivo cytotoxicity, Annexin V / propidium iodide flow cytometry, CLL patient cells. Format: cell-based, human. As to conditions: 10 μM, 24 hours. On the procedure:
as §1

[3] abbreviates: 200 μM compound, 0.1 μM cN-II, 100 μM IMP, pH 6.5, 37° C.

Sequence of purified recombinant cN-II enzyme (P49902 whole entry): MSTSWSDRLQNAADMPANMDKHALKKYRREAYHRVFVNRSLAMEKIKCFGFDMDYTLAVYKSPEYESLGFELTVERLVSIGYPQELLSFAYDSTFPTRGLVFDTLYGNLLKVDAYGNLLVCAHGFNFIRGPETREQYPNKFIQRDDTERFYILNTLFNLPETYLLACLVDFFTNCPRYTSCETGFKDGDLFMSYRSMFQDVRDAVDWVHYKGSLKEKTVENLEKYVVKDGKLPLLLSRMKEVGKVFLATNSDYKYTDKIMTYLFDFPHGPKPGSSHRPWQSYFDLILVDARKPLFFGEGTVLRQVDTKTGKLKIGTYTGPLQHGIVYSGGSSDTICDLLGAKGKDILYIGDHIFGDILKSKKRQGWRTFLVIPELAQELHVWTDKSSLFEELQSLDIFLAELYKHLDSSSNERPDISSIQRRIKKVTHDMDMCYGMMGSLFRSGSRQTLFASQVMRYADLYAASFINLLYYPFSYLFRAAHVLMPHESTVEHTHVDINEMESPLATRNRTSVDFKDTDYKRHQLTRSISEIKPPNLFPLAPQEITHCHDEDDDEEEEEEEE

As to “9-(phenylmethyl)-9H-purin-6-yl-[1,1′-biphenyl]-3-carboxamide [(20)]”, the “Inhibition strength (Strong/Medium/Weak)” value in data set [1] is recorded as “S”. Besides, in data set [1] (pH 6.5), the “Inhibition cN-II in vitro (200 μM)” value is 58 +/−19%. Also, in the data set with RL cancer line, the “Synergy MTT with cladribine” value is reported as “Antagonistic with (values above 1.1 indicate antagonism)”, the “Synergy MTT with clofarabine” value is given as “Antagonistic with (values above 1.1 indicate antagonism)”, the “Synergy MTT with fludarabine” value is given as “Synergy with (CI95 values below 0.9 indicate synergy between the two compounds)” and the “synergistic effect with at least one of the three anticancer agents” value (“synergistic effect with at least one” below) is listed as “synergistic effect”.

`O=C(Nc1ncnc2ncn(Cc3ccccc3)c12)c1cccc(-c2ccccc2)c1` [(19)]: the “Inhibition cN-II in vitro (200 μM)” value in data set [1] (setting [3]) was 68 +/− 15%. Besides, the “Inhibition strength (Strong/Medium/Weak)” value in data set [1] (cN-II) is reported as “S”. For the same molecule, in the data set on RL cancer line, the “Synergy MTT with cladribine” value is “Synergy with (CI95 values below 0.9 indicate synergy between the two compounds)”, the “Synergy MTT with fludarabine” value was “Synergy with (CI95 values below 0.9 indicate synergy between the two compounds)” and the “synergistic effect with at least one” value was “synergistic effect”. For the same molecule, the 50% inhibitory concentration (IC50) in data set [2] was determined as 60 µM.

For `O=C(Nc1ncnc2ncn(COCc3ccccc3)c12)c1cccc(-c2ccccc2)c1` [(21)], the “Inhibition cN-II in vitro (200 μM)” value in data set [1] (setting [3]) is given as 50 +/− 2%. Further, the “Inhibition strength (Strong/Medium/Weak)” value in data set [1] (cN-II) was “M”. Besides, in the data set on RL cancer line, the “Synergy MTT with cladribine” value was “Synergy with (CI95 values below 0.9 indicate synergy between the two compounds)”; the “Synergy MTT with clofarabine” value is “Synergy with (CI95 values below 0.9 indicate synergy between the two compounds)”; the “Synergy MTT with fludarabine” value is “Additive with (values between 0.9 and 1.1 indicate additivity)”; the “synergistic effect with at least one” value is given as “synergistic effect”. In data set [2] (cell model used (RL)), the “intrinsic cytotoxic activity, IC50 values” was “a few micromolar to a few tens of micromolar”. Besides, the IC50 in data set [2] came out at 36 µM.

In the case of `O=C(Nc1ncnc2c1ncn2COCc1ccccc1)c1cccc(-c2ccccc2)c1` [(22), 9-[(phenylmethoxy)methyl]-9H-purin-6-yl-[1,1′-biphenyl]-3-carboxamide], the “Inhibition cN-II in vitro (200 μM)” value in data set [1] (setting [3]) is 43 +/− 7%. Also, the “Inhibition strength (Strong/Medium/Weak)” value in data set [1] (cN-II) was “M”. In data set [2], the IC50 was 188 µM.

With `O=S(=O)(Nc1ncnc2[nH]cnc12)c1ccc(-c2ccccc2)cc1` [(33), 9H-purin-6-yl-[1,1′-biphenyl]-4-sulfonamide], in data set [1] (setting [3]), the “Inhibition cN-II in vitro (200 μM)” value is recorded as 70 +/− 5%. For the same molecule, the “Inhibition strength (Strong/Medium/Weak)” value in data set [1] (cN-II) is reported as “S”. For the same molecule, in data set [2], the IC50 was 195 µM.

Consider `Nc1ccn([C@@H]2O[C@H](CO)[C@@H](O)[C@@H]2O)c(=O)n1` [cytarabine], for which the “Annexin V labeling, AML samples, mean over the five samples” value in the data set with cells of AML patients came out at 44.5%.

As to `Nc1nc(F)nc2c1ncn2[C@@H]1O[C@H](CO)[C@@H](O)[C@@H]1O` [fludarabine], the “Annexin V labeling, CLL samples” value with cells of CLL patients turned out to be 45.8%.

For the molecule “(naphthalene-1-carbonylamino-9H-purin-6-yl)methylphosphonic acid [(31)]”, the “Inhibition cN-II in vitro (200 μM)” value in data set [1] (setting [3]) was 10%. The “Inhibition strength (Strong/Medium/Weak)” value in data set [1] (cN-II) is “W”. For the same molecule, in data set [2], the IC50 turned out to be 250 µM.

Consider “(naphthalene-2-carbonylamino-9H-purin-6-yl)methylphosphonic acid [(32)]”, for which the “Inhibition cN-II in vitro (200 μM)” value in data set [1] (setting [3]) was 10%. In addition, the “Inhibition strength (Strong/Medium/Weak)” value in data set [1] (cN-II) is on record as “W”. In addition, the IC50 in data set [2] was determined as 145 µM.
